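96-well plates; 48 h exposure; 5 concentrations. Endpoints by linear interpolation between flanking doses. Not reached: highest tested concentration assigned. TGI: total growth inhibition.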
How the values were obtained:
Assay in all cases: DTP human tumour cell line panel, 48 h
SK-MEL-2 melanoma = test system: SK-MEL-2 melanoma
NCI-H23 lung = test system: NCI-H23 lung
MDA-MB-231 breast = test system: MDA-MB-231 breast
SK-MEL-28 melanoma = test system: SK-MEL-28 melanoma
SN12C renal = test system: SN12C renal
SF-539 CNS = test system: SF-539 CNS
DU-145 prostate = test system: DU-145 prostate
RXF 393 renal = test system: RXF 393 renal
SW-620 colon = test system: SW-620 colon
HOP-62 NSCLC = test system: HOP-62 NSCLC
HCT-15 colon = test system: HCT-15 colon
M14 melanoma = test system: M14 melanoma
OVCAR-8 ovarian = test system: OVCAR-8 ovarian
HT29 colon = test system: HT29 colon
A498 renal = test system: A498 renal
HL-60(TB) leukemia = test system: HL-60(TB) leukemia

Row | SMILES | TGI (SK-MEL-2 melanoma) | TGI (NCI-H23 lung) | TGI (MDA-MB-231 breast) | TGI (SK-MEL-28 melanoma) | TGI (SN12C renal) | TGI (SF-539 CNS) | TGI (DU-145 prostate) | TGI (RXF 393 renal) | TGI (SW-620 colon) | TGI (HOP-62 NSCLC) | TGI (HCT-15 colon) | TGI (M14 melanoma) | TGI (OVCAR-8 ovarian) | TGI (HT29 colon) | TGI (A498 renal) | TGI (HL-60(TB) leukemia)
1 | CCOC(=O)COc1cc(-c2ccccc2F)nc2cc3c(cc12)OCO3 | > 100 µM | > 100 µM | > 100 µM | > 100 µM | > 100 µM | > 100 µM | > 100 µM | > 100 µM | > 100 µM | > 100 µM | > 100 µM | > 100 µM | > 100 µM | > 100 µM |  | 
2 | COc1ccc(C=Nc2ccc(-c3nc4ccccc4s3)cc2)cc1OC | 48.1 µM | 90.6 µM |  | > 100 µM | > 100 µM | > 100 µM | > 100 µM | 62.4 µM | > 100 µM | 39.2 µM | > 100 µM | > 100 µM | > 100 µM | > 100 µM | 46.2 µM | 
3 | Cc1ccc(Nc2c3c(c(C#N)c4nc5ccccc5n24)CCCC3)cc1 | 31.7 µM | > 100 µM | 62.4 µM | 55.6 µM | 31.7 µM | 43.4 µM | > 100 µM |  | 61 µM |  | 82.4 µM | 74.4 µM | > 100 µM | 37.2 µM |  | 25.5 µM
4 | CC(=O)N1C(C(=O)NN2CCOCC2)CSC1c1ccccc1 (stereo not given) | > 100 µM | > 100 µM | > 100 µM |  | > 100 µM | > 100 µM | > 100 µM |  | > 100 µM | > 100 µM | > 100 µM | > 100 µM | > 100 µM | > 100 µM | > 100 µM | 
5 | C/C(=C1/N=C(c2cc([N+](=O)[O-])ccc2Cl)N(c2ccc(Br)cc2)C1=O)c1ccc(N(CCC#N)CCC#N)cc1C | > 100 µM | > 100 µM |  | > 100 µM | > 100 µM | > 100 µM |  | > 100 µM | 25.5 µM | > 100 µM | 58.7 µM | > 100 µM | > 100 µM | > 100 µM | 96.4 µM | 36.3 µM
6 | CC(=N/NC(=S)N1CCCCCC1)/C(C)=N\NC(=S)N1CCCCCC1 |  | 12.6 µM | > 22.8 µM | 3.56 µM | 3.99 µM | > 100 µM | 8.66 µM | 8.88 µM | 5.23 µM | 15.2 µM | 13.6 µM | 57.9 µM | > 100 µM | 7.08 µM | 3.47 µM | 
7 | Clc1ccc(Nc2ncco2)cc1Cl |  | > 10 µM | > 10 µM | > 10 µM | > 10 µM | > 10 µM | > 10 µM |  | > 10 µM | > 10 µM | > 10 µM | > 10 µM | > 10 µM | > 10 µM | > 10 µM | 
8 | COC(CNC(=O)CNC(=O)c1ccc(C(F)(F)F)cc1)OC | > 100 µM | > 100 µM | > 100 µM |  | > 100 µM | > 100 µM | > 100 µM | > 100 µM | > 100 µM |  | > 100 µM | > 100 µM | > 100 µM | > 100 µM |  | > 100 µM
9 | C[N+]1=C(c2cccnc2/C=N/O)OCC1(C)C | > 100 µM | > 100 µM |  | > 100 µM | > 100 µM | > 100 µM |  | > 100 µM | > 100 µM | > 100 µM | > 100 µM | > 100 µM | > 100 µM | > 100 µM | > 100 µM | > 100 µM
10 | CCOC(=O)NN(C(=O)OCC)c1ccc(N=Nc2ccc(OC)cc2)n1C | 29.4 µM | > 100 µM | 65.5 µM |  | > 100 µM | 40.5 µM |  | > 100 µM |  | 86.8 µM | 39.1 µM | 50 µM | > 100 µM | 58.3 µM | 56.1 µM | 50.5 µM
11 | CCOC(=O)c1c(N2CCCC2)[nH]c(=O)c(C(c2c(O)c(C(=O)OCC)c(N3CCCC3)[nH]c2=O)C(C)C)c1O |  | > 100 µM | 64.3 µM | > 100 µM | > 100 µM | > 100 µM | > 100 µM | > 100 µM | > 100 µM | > 100 µM | > 100 µM | > 100 µM | > 100 µM | > 100 µM | > 100 µM | 
12 | Oc1ccc(-c2c3ccccc3c(-c3ccc(O)cc3)c3ccccc23)cc1 | > 100 µM | > 100 µM |  | > 100 µM | > 100 µM | > 100 µM |  | > 100 µM | > 100 µM | > 100 µM | > 100 µM | > 100 µM | > 100 µM | > 100 µM | > 100 µM | > 100 µM
13 | O=Cc1c2c(cc3c1CC1(C3)Cc3cc4c(c(C=O)c3C1)CCCC4)CCCC2 |  | > 31.6 µM | > 31.6 µM | > 100 µM | > 31.6 µM | > 31.6 µM | > 100 µM | > 31.6 µM | > 100 µM | > 31.6 µM | > 31.6 µM | > 31.6 µM | > 31.6 µM | > 31.6 µM |  | > 100 µM
14 | c1ccc(CN2CCC(=NN3CCCCC3)CC2)cc1 | > 100 µM | > 100 µM | > 100 µM | > 100 µM | > 100 µM | > 100 µM | > 100 µM | > 100 µM | > 100 µM | > 100 µM | > 100 µM | > 100 µM | > 100 µM | > 100 µM |  | 43.9 µM
15 | O=[N+]([O-])c1ccc(CSc2nn(Cc3ccc([N+](=O)[O-])cc3)cc3ncnc2-3)cc1 | 49.1 µM | > 100 µM | > 100 µM | 84.5 µM | > 100 µM | 95.5 µM |  |  | > 100 µM | > 100 µM | > 100 µM | > 100 µM | > 100 µM | > 100 µM | 58.8 µM | 46.4 µM
16 | Cc1ccc2nc(N)[nH]c(=O)c2c1Sc1ccncc1 | > 100 µM | > 100 µM |  | > 100 µM | > 100 µM | > 100 µM |  | > 100 µM | > 100 µM | > 100 µM | > 100 µM | > 100 µM | > 100 µM | > 100 µM | > 100 µM | > 100 µM

Source: PubChem BioAssay (NCI)
